Experimental data taken from patent US8946167B2, “Pharmaceutical compositions containing plasma protein” (priority 1997, dated 2015).

Experiments:
human gamma globulin = assay: binding of active substance to human gamma globulin (ultrafiltration, HPLC); conditions: Example II.4; 2.25% human gamma globulin + 0.1 mg/ml paclitaxel in absolute ethanol 9:1; lyophilised, redissolved; UF
histamine release = assay: hypersensitivity test: plasma histamine level in rats; type: in vivo, CRL (WI) BR male rats; conditions: around 7.0 mg/kG for paclitaxel i.v., blood after 2, 5 and 10 minutes
Experimental: Our study was performed on CRL (WI) BR male rats weighing 130-150 g [14]. […] A group for each time point and dose contained 5 animals. The blood samples were collected into heparin containing tubes after 2, 5 and 10 minutes of treatment. The plasma was separated by quick centrifugation. The samples were stored at −70° C.
The histamine content of the sample was C^14-methylated by specific histamine-N-methyl-transferase enzyme. The histamine level was determined in the plasma samples measuring the C^14 radioactivity in the samples.

## CC(=O)O[C@H]1C(=O)[C@@]2(C)[C@H]([C@H](OC(=O)c3ccccc3)[C@]3(O)C[C@H](OC(=O)[C@H](O)[C@@H](NC(=O)c4ccccc4)c4ccccc4)C(C)=C1C3(C)C)[C@]1(OC(C)=O)CO[C@@H]1C[C@@H]2O [paclitaxel]
Human gamma globulin
  binding of paclitaxel to human gamma globulin: 98%
Histamine release
  histamine release induction (plasma histamine level): do not show any such effect
